Source: US6562843B1, “Substituted 3-pyridyl-4-arylpyrroles, and related therapeutic and prophylactic methods” (Ortho-McNeil Pharmaceutical, Inc., priority 1999, dated 2003)

Key:
[1] = biological target: T1, purified recombinant p38 (6×His-p38 expressed in E.coli) (Homo sapiens, UniProt Q16539); experiment: p38 Inhibition In-Vitro Enzyme Assay; type: biochemical; details: myelin basic protein substrate, 33P-ATP; for inhibition at 10 µM: read-out: % p38 inhib @ 10 μM
T1 construct: 6xHis; made in house; host or cells: E. coli
T1 sequence (Q16539 whole entry): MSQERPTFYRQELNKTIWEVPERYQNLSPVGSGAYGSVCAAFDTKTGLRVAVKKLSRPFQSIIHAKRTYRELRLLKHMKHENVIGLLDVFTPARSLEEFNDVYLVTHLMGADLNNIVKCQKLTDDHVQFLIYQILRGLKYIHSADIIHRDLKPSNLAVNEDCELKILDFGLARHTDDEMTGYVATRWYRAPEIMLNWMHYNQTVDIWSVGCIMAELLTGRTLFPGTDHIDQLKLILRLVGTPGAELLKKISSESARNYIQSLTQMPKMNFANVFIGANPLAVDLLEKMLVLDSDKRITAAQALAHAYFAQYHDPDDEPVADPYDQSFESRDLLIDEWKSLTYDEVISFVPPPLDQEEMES
Method: A. p38 Inhibition In-Vitro Enzyme Assay
A solution (38 μL) of purified recombinant p38 (6×His-p38 expressed in E.coli), myelin basic protein substrate (determined empirically), and a buffer of pH 7.5 (Hepes:25 mM, MgCl2:10 mM, MnCl2:10 mM) were added to 92 wells of a 96-well round bottom polypropylene plate. The amount of enzyme was determined empirically based on the linear range of the assay and the acceptable signal to noise ratio. The remaining wells were used for control “CTRL”) and background (“BKG”). The CTRL was prepared with the enzyme, substrate buffer and 2% DMSO, and the BKG was prepared with substrate buffer and 2% DMSO.
A solution (12 μL) of the test compound in DMSO was added to the testing wells. […] The ATP/^33P-ATP solution (10 μL containing 50 μM unlabeled ATP and 1 μCi ^33P-ATP) was added to all wells and the completed plates were mixed and incubated at 30° C. for 30 min. Ice-cold 50% TCA/10 mM sodium phosphate (60 μL) was added to each well and the plates were kept on ice for 15 min. The contents of each well were transferred to the wells of a 96-well filterplate (Millipore, MultiScreen-DP) and the filterplate was placed on a vacuum manifold fitted with a waste collection tray. The wells were washed five times with 10% TCA/10 mM sodium phosphate (200 μL) under vacuum. MicroScint-20 scintillant was added, and the plates were sealed using Topseal-S sheets and counted in a Packard TopCount scintillation counter using a ^33P liquid program with color quench correction, where the output is in color quench-corrected cpm. The % inhibition of each test compound as shown in Table 2 was calculated by the following formula: % inhibition=[1−(sample−BKG)/(CTRL−BKG)]×100.
[…] In addition, the IC50 was calculated for some compounds using the Deltagraph 4-parameter curve-fitting program.

[2] = test system: TNF-α production; experiment: In-Vitro Whole Cell Assay for TNF-α Inhibition (LPS-stimulated PBMC, ELISA); type: cell-based; details: LPS overnight, TNF-α by ELISA
Method: B. In-Vitro Whole Cell Assay for TNF-α Inhibition
Freshly obtained venous blood was anticoagulated with heparin, diluted with an equal volume of phosphate buffered saline (“PBS”) and placed in a sterile tube or other container. Aliquots (30 mL) of this mixture were transferred to centrifuge tubes which were underlaid with Ficoll-Hypaque (15 mL). The prepared tubes were centrifuged at 400×g, without braking, for 30 min at room temperature. Approximately ½ to ⅔ of the platelet layer above the mononuclear cell band was removed with a pipette. The majority of the mononuclear cell layer was carefully removed using a pipette and these PBMC's were diluted with PBS and spun at 600×g for 15 min. The resulting PBMC's were washed with another portion of PBS and spun at 400×g for 10 min at room temperature. The recovered pellets were diluted in low endotoxin RPMI/1% FCS culture medium, and gave a cell concentration of 0.5-2.0×10^6 PMBC/mL. A small volume of the suspension was removed for counting on a hemocytometer and the remaining preparation was centrifuged at 200×g for 15 min at room temperature. The recovered pelleted PMBC's were resuspended in RPMI/1% FCS to a concentration of 1.67×10^6/mL.
To run the assay, the PBMC suspension (180 μL) was transferred to duplicate wells of a 96-well flat-bottom microtiter plate and incubated for 1 h at 37° C. A solution of test compound (10 μL: prepared at 20× the desired final concentration) was added to each well and the plate was incubated for 1 h at 37° C. A solution (10 μL) of LPS in RPMI/1% FCS (200 ng/mL) was added and the wells were incubated overnight at 37° C. The supernate (100 μL) was removed from each well and diluted with RPMI/1% FCS (400 μL). The samples were analyzed for TNF-α using a commercial ELISA kit (Genzyme).
The compounds were tested for their ability to inhibit TNF-α production. The IC50 nM results are listed for the indicated compounds.

[3] = test system: LPS-induced TNF-α production; experiment: In Vivo Rodent Assay for Inhibition of TNF-α Production (mice); design: species or system Mice (BALB/cJ females); details: oral dosing, LPS 1 mg/kg i.p., serum TNF-α
Method: C. In Vivo Rodent Assay for Inhibition of TNF-α Production
Mice (BALB/cJ females, Jackson Laboratories) or rats (Lewis males, Charles River) were fasted for 30 min prior to oral dosing with 5-10 mL/kg of test compound at 5-50 mg/kg. Thirty minutes after dosing, the animals were injected intraperitoneally with LPS at 1 mg/kg and returned to their cages for 1 h. Animals were anesthetized by CO2, exsanguinated by cardiac puncture and whole blood collected (0.1-0.7 mL). The blood was allowed to clot and serum was transferred to a centrifuge tube. This sample was centrifuged, and serum was collected, aliquoted and frozen at −80° C. Samples were tested by commercial ELISA's for TNF-α (Endogen for mouse TNF-α and Biosource for rat TNF-α).

SMILES	% p38 inhib @ 10 μM [1] [%]	IC50 [2] [nM]	TNF-α % Inhibition Mouse ([3]; 10 mg/kg) [%]	TNF-α % Inhibition Mouse ([3]; 25 mg/kg) [%]	inhibition at 10 µM [1] [%]	inhibition in vivo at 10 mg/kg ([3]; Mus musculus, 1 h, 10 mg/kg) [%]	inhibition in vivo at 25 mg/kg ([3]; Mus musculus, 1 h, 25 mg/kg) [%]
COc1cccc(-c2cn(-c3ccc(C#N)cc3)cc2-c2ccncc2)c1 [compound 18]	23	15	24	60			
Fc1ccc(-c2c[nH]c(CCCc3ccccc3)c2-c2ccncc2)cc1 [compound 28, 4-(4-Fluorophenyl)-2-(3-phenylpropyl)-3-(4-pyridyl)pyrrole]		3.5			49	10	10
O=[N+]([O-])c1ccc(-n2cc(-c3ccncc3)c(-c3ccc(F)c(F)c3)c2)cc1 [compound 3]	80	2	81				
CC(=O)Nc1ccc(-n2cc(-c3ccc(F)cc3)c(-c3ccncc3)c2CCCc2ccccc2)cc1 [compound 32, 1-(4-Acetoaminophenyl)-4-(4-fluorophenyl)-2-(3-phenylpropyl)-3-(4-pyridyl)pyrrole]		5			38	48	
